The values below are quoted from earlier work in patent EP3721896B1, “EPIDERMAL GROWTH FACTOR (EGF) AND VARIANTS THEREOF FOR TREATING OR PREVENTING INFLAMMATORY DEMYELINATING DISORDERS” (Scalabrino, Giuseppe, priority 2019, dated 2023).

For this data set, the system named is experimental autoimmune encephalomyelitis (EAE). Particulars: administered alone; Lewis rat; from EP1870106A2.

GHRP-6: the “Effect on course of EAE as compared to placebo” value was “no effect was observed”.
